From patent publication US9242969B2, “Biaryl amide compounds as kinase inhibitors” (Novartis AG, priority 2013, dated 2016)
pIC50: −log10 of the molar value.

Target: C-Raf TR (Δ1-324 deletion mutant with activating mutations) (Homo sapiens (Human), UniProt P04049, Y340E/Y341E)
Type: biochemical
Details: truncated C-Raf (Δ1-324), ATP 3 uM, 10 nM biotinylated MEK1 kinase dead
Method: biotinylated Mek, Kinase dead approximately 10 nM
Pre-incubation time with compounds 30 minutes at room temperature
Reaction time 2 hours at room temperature
Plates were sealed and stored overnight in the dark at room temperature. Plates were counted in a Perkin Elmer Envision instrument.

Chain of C-Raf TR (Δ1-324 deletion mutant with activating mutations) (P04049 325-648 Y340E/Y341E): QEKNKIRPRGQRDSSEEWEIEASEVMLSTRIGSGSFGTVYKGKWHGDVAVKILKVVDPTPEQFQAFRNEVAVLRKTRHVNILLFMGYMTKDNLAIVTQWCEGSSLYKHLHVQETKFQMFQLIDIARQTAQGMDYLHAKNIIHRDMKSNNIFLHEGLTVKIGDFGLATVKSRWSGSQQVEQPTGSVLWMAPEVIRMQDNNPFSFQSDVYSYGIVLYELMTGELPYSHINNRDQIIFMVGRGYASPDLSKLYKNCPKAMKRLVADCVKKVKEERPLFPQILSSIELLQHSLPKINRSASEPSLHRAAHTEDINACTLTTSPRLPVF

SMILES | pIC50
Cc1ccc(C(=O)Nc2cccc(C(F)(F)F)c2)cc1-c1nc(N2CCOCC2)cc(N2CCOCC2)n1 [Example 14, 3-(4,6-dimorpholinopyrimidin-2-yl)-4-methyl-N-(3-(trifluoromethyl)phenyl)benzamide] | 9.10
Cc1ccc(C(=O)Nc2cccc(C(F)(F)F)c2)cc1-c1ccnc(N2CCOCC2)c1 [Example 63, 4-Methyl-3-(2-morpholinopyridin-4-yl)-N-(3-(trifluoromethyl)phenyl)benzamide] | 9.29
Cc1ccc(NC(=O)c2cccc(C(F)(F)F)c2)cc1-c1cn(C)c(=O)c(N2CCOCC2)n1 [Example 119, N-(4-methyl-3-(4-methyl-6-morpholino-5-oxo-4,5-dihydropyrazin-2-yl)phenyl)-3-(trifluoromethyl)benzamide] | 9.57

The remaining lines, values ahead:

pIC50 | SMILES
8.89 | Cc1ccc(NC(=O)c2cccc(C(F)(F)F)c2)cc1-c1csc(N2CCOCC2)n1 [Example 199, N-(4-methyl-3-(2-morpholinothiazol-4-yl)phenyl)-3-(trifluoromethyl)benzamide]
9.51 | Cc1ccc(NC(=O)c2cccc(C(F)(F)F)c2)cc1-c1cncc(N2CCOCC2)n1 [Example 118, N-(4-methyl-3-(6-morpholinopyrazin-2-yl)phenyl)-3-(trifluoromethyl)benzamide]
